Results published in patent US10005884B2, “Methods for purifying 2-aryl-3,3-bis(hydroxyaryl)phthalimidines” (SABIC GLOBAL TECHNOLOGIES B.V., priority 2014, dated 2018).

Test: Solubility of PPPBP in methanol (amount of methanol required to bring PPPBP into solution)
Format: physicochemical
Source text: Studies were undertaken to determine the amount of methanol required to bring PPPBP into solution at room temperature and at elevated temperature.

For `O=C1c2ccccc2C(c2ccc(O)cc2)(c2ccc(O)cc2)N1c1ccccc1` [Pure PPPBP, 2-phenyl-3,3-bis(4-hydroxyphenyl)phthalimidine], the Volumes of methanol (at reflux temp) was 17 volumes and the Volumes of methanol (at room temp) was 20 volumes.
